Each structure is given as a SMILES string.

The subject of test [1] is p-ERK pathway in H358 cells. In words: p-ERK pathway inhibition in H358 cells (Advanced phospho-ERK (Thr202/Tyr204) cellular kit, HTRF). The format is cell-based. The conditions noted are these: Homo sapiens, NCI-H358, 1 h compound incubation. The method in brief: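 IC50 from an 8-point four-parameter fit of % inhibition of ERK Thr202/Tyr204 phosphorylation, measured by HTRF 665/620 ratio in lysates. H358 cells were seeded at 50000/well, starved overnight without serum, and exposed to compound 1 h at 37 °C; controls were cell-free (100%) and untreated (0%).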
A general note: Time-resolved FRET reads energy transfer from a long-lived donor to a nearby acceptor.

The test system of another test is H358 cells. Briefly: H358 cell proliferation inhibition (CellTiter-Glo luminescent cell viability assay). The conditions noted are these: Homo sapiens, NCI-H358, 168 h, 7 days. It is filed as cell-based. The method in brief:
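H358 cells seeded at 3000 cells/well in RPMI1640/10% FBS, treated with compound for 7 days at 37 °C/5% CO2. Viability read by CellTiter-Glo 3D luminescence, normalised to cell-free (100%) and compound-free (0%) controls; IC50 fitted from 8 concentrations by four-parameter curve.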

Regarding `Cc1nc(N[C@H](C)c2cccc(C#N)c2C)c2cn(N3CCOCC3)c(=O)c(OC3(C)CC3)c2n1` [Example 91, (R)-2-methyl-3-(1-((2-methyl-8-(1-methylcyclopropoxy)-6-morpholinyl-7-oxo-6,7-dihydropyrido[4,3-d]pyrimidin-4-yl)amino)ethyl)benzonitrile], the IC50 in test [1] came out at 133 nM; with H358 cells, 148 nM.

Take `Cc1nc(N[C@H](C)c2cccc(C(F)F)c2F)c2cn(N3CCOCC3)c(=O)c(-c3cnn4c3COCC4)c2n1` [Example 138, (R)-4-((1-(3-(difluoromethyl)-2-fluorophenyl)ethyl)amino)-8-(6,7-dihydro-4H-pyrazolo[5,1-c][1,4]oxazin-3-yl)-2-methyl-6-morpholinylpyrido[4,3-d]pyrimidine-7(6H)-one]: the half-inhibitory concentration (IC50) in test [1] is 63.1 nM; in the test with H358 cells, 115 nM.

Regarding `Cc1nc(N[C@H](C)c2cccc(C(F)F)c2F)c2cn(C3(CF)CC3)c(=O)c(N(C)c3cnn(C)c3)c2n1` [Example 65, (R)-4-((1-(3-(difluoromethyl)-2-fluorophenyl)ethyl)amino)-6-(1-(fluoromethyl)cyclopropyl)-2-methyl-8-(methyl(1-methyl-1H-pyrazol-4-yl)amino)pyrido[4,3-d]pyrimidine-7(6H)-one], the IC50 in test [1] worked out at 27 nM; in the test on H358 cells, 66.4 nM.

On to `CC[C@H]1COCCN1c1c(=O)n(C2(CF)CC2)cc2c(N[C@H](C)c3cccc(C(F)F)c3F)nc(C)nc12` [Example 58, 4-(((R)-1-(3-(difluoromethyl)-2-fluorophenyl)ethyl)amino)-8-((S)-3-ethylmorpholino)-6-(1-(fluoromethyl)cyclopropyl)-2-methylpyrido[4,3-d]pyrimidine-7(6H)-one], for which the figures for the IC50 (in test [1]; with H358 cells) were 112 nM and 57.9 nM, respectively.

As to `COc1c(=O)n(C2(CF)CCN(C(C)=O)C2)cc2c(N[C@H](C)c3cccc([N+](=O)[O-])c3C)nc(C)nc12` (stereo partly drawn) [Example 16, 6-(1-acetyl-3-(fluoromethyl)pyrrolidin-3-yl)-8-methoxy-2-methyl-4-(((R)-1-(2-methyl-3-nitrophenyl)ethyl)amino)pyrido[4,3-d]pyrimidine-7(6H)-one], the IC50 in test [1] was determined as 28 nM; with H358 cells it was 187 nM.

Consider `[2H]C1([2H])COC[C@H](C)N1c1c(=O)n(C2(CF)CC2)cc2c(N[C@H](C)c3cccc(C(F)F)c3F)nc(C)nc12` [Example 175], for which the figures for the IC50 (in test [1]; with H358 cells) were 31 nM and 36.2 nM, respectively.

Turning to `Cc1nc(N[C@H](C)c2cccc(C(F)F)c2F)c2cn(C3(CF)CC3)c(=O)c(Oc3ccnc(C#N)c3)c2n1` [Example 72, (R)-4-((4-((1-(3-(difluoromethyl)-2-fluorophenyl)ethyl)amino)-6-(1-(fluoromethyl)cyclopropyl)-2-methyl-7-oxo-6,7-dihydropyrido[4,3-d]pyrimidin-8-yl)oxy)pyridinecarbonitrile], the half-maximal inhibitory concentration (IC50) in test [1] came to 72.4 nM; with H358 cells, 73.8 nM.

On to `Cc1nc(N[C@H](C)c2cccc(C(F)F)c2F)c2cn(C3(CF)CC3)c(=O)c(N3CCOC[C@H]3C)c2n1` [Example 39, 4-(((R)-1-(3-(difluoromethyl)-2-fluorophenyl)ethyl)amino)-6-(1-(fluoromethyl)cyclopropyl)-2-methyl-8-((R)-3-methylmorpholine)pyrido[4,3-d]pyrimidine-7(6H)-one], for which the half-maximal inhibitory concentration (IC50) in test [1] worked out at 38.7 nM; in the test with H358 cells, 32.7 nM.

For the compound `Cc1nc(N[C@H](C)c2cccc(C(F)F)c2F)c2cn(C3(CF)CC3)c(=O)c(N3CCN(CC4COC4)CC3)c2n1` [Example 133, (R)-4-((1-(3-(difluoromethyl)-2-fluorophenyl)ethyl)amino)-6-(1-(fluoromethyl)cyclopropyl)-2-methyl-8-(4-(oxetan-3-ylmethyl)piperazin-1-yl)pyrido[4,3-d]pyrimidine-7(6H)-one], the half-maximal inhibitory concentration (IC50) was 70 nM in test [1] and 34.9 nM in the test on H358 cells.

`Cc1nc(N[C@H](C)c2cccc(C(F)F)c2F)c2cn(N3CCOCC3)c(=O)c(N3CCN(C)CC3)c2n1` [Example 69, (R)-4-((1-(3-(difluoromethyl)-2-fluorophenyl)ethyl)amino)-2-methyl-8-(4-methylpiperazin-1-yl)-6-morpholinepyrido[4,3-d]pyrimidine-7(6H)-one]: the IC50 is 38.7 nM in test [1] and 22.9 nM with H358 cells.

Regarding `[2H]C([2H])([2H])Oc1c(=O)n(N2CCOCC2)cc2c(N[C@H](C)c3cccc(C(F)F)c3F)nc(C)nc12` [Example 48, (R)-4-((1-(3-(difluoromethyl)-2-fluorophenyl)ethyl)amino)-8-(methoxy-d3)-2-methyl-6-morpholinepyrido[4,3-d]pyrimidine-7(6H)-one], the results for the IC50 (in test [1]; with H358 cells) were 114 nM and 47.2 nM, respectively.

With `Cc1nc(N[C@H](C)c2cccc(C(F)(F)F)c2C)c2cn(C3(CF)CC3)c(=O)c(N3CCO[C@H](C)C3)c2n1` [Example 85, 6-(1-(fluoromethyl)cyclopropyl)-2-methyl-4-(((R)-1-(2-methyl-3-(trifluoromethyl)phenyl)ethyl)amino)-8-((R)-2-methylmorpholine)pyrido[4,3-d]pyrimidine-7(6H)-one], the half-maximal inhibitory concentration (IC50) in test [1] is 41 nM; in the test with H358 cells, 97.2 nM.

Take `Cc1nc(N[C@H](C)c2cccc(C(F)F)c2F)c2cn(C3(CF)CC3)c(=O)c(N3CCN4CCC[C@@H]4C3)c2n1` (stereo in doubt) [Example 97, 4-(((R)-1-(3-(difluoromethyl)-2-fluorophenyl)ethyl)amino)-6-(1-(fluoromethyl)cyclopropyl)-8-((R)-hexahydropyrrolo[1,2-a]pyrazin-2(1H)-yl)-2-methylpyrido[4,3-d]pyrimidine-7(6H)-one]: the values for the half-maximal inhibitory concentration (IC50) (in test [1]; in the test with H358 cells) were 66.3 nM and 11.8 nM, respectively.

For `Cc1nc(N[C@H](C)c2cccc(C(F)(F)C(C)(C)C#N)c2)c2cn(C3(CF)CC3)c(=O)cc2n1` [Example 6, (R)-3,3-difluoro-3-(3-(1-((6-(1-(fluoromethyl)cyclopropyl)-2-methyl-7-oxo-6,7-dihydropyrido[4,3-d]pyrimidin-4-yl)amino)ethyl)phenyl)-2,2-dimethylpropanenitrile], the IC50 in test [1] was determined as 112 nM; in the test on H358 cells, 80 nM.

`Cc1nc(N[C@H](C)c2cccc(C#N)c2C)c2cn(C3(CF)CC3)c(=O)c(N3CCOCC3(C)C)c2n1` [Example 171, (R)-3-(1-((8-(3,3-dimethylmorpholinyl)-6-(1-(fluoromethyl)cyclopropyl)-2-methyl-7-oxo-6,7-dihydropyrido[4,3-d]pyrimidin-4-yl)amino)ethyl)-2-methylbenzonitrile]: the IC50 in test [1] came out at 75.6 nM; in the test on H358 cells, 52.7 nM.

For `Cc1nc(N[C@H](C)c2cccc(C(F)F)c2F)c2cn(C3(CF)CC3)c(=O)c(N3CCN(CC4CC4)CC3)c2n1` [Example 132, (R)-8-(4-(cyclopropylmethyl)piperazin-1-yl)-4-((1-(3-(difluoromethyl)-2-fluorophenyl)ethyl)amino)-6-(1-(fluoromethyl)cyclopropyl)-2-methylpyrido[4,3-d]pyrimidine-7(6H)-one], the half-maximal inhibitory concentration (IC50) amounted to 84.3 nM in test [1] and 37.3 nM in the test with H358 cells.

As to `Cc1nc(N[C@H](C)c2cccc(C(F)F)c2F)c2cn(C3(CF)CC3)c(=O)c(N3CCN(C(C)C)CC3)c2n1` [Example 94, (R)-4-((1-(3-(difluoromethyl)-2-fluorophenyl)ethyl)amino)-6-(1-(fluoromethyl)cyclopropyl)-8-(4-isopropylpiperazin-1-yl)-2-methylpyrido[4,3-d]pyrimidine-7(6H)-one], the IC50 in test [1] was 60.9 nM; with H358 cells, 16.8 nM.

`[2H][C@](C)(Nc1nc(C)nc2c(N3CCOC[C@@H]3C)c(=O)n(C3(CF)CC3)cc12)c1cccc(C(F)F)c1F` [Example 112, 4-(((R)-1-(3-(difluoromethyl)-2-fluorophenyl)ethyl-1-d)amino)-6-(1-(fluoromethyl)cyclopropyl)-2-methyl-8-((S)-3-methylmorpholine)pyrido[4,3-d]pyrimidine-7(6H)-one]: the half-maximal inhibitory concentration (IC50) in test [1] is 109 nM; with H358 cells it was 21.2 nM.

Consider `Cc1nc(N[C@H](C)c2cccc(C(F)F)c2F)c2cn(N3CCOCC3)c(=O)c(N3CCOC[C@@H]3C)c2n1` [Example 68, 4-(((R)-1-(3-(difluoromethyl)-2-fluorophenyl)ethyl)amino)-2-methyl-8-((S)-3-methylmorpholine)-6-morpholinepyrido[4,3-d]pyrimidine-7(6H)-one], for which the IC50 was 15.3 nM in test [1] and 25.2 nM in the test on H358 cells.

As to `Cc1nc(N[C@H](C)c2cccc([N+](=O)[O-])c2C)c2cn(C3(CF)CC3)c(=O)cc2n1` [Example 13], the IC50 in test [1] stood at 131 nM; in the test with H358 cells, 54.1 nM.

`CCN(CC)c1c(=O)n(C2(CF)CC2)cc2c(N[C@H](C)c3cccc(C(F)F)c3F)nc(C)nc12` [Example 96, (R)-8-(diethylamino)-4-((1-(3-(difluoromethyl)-2-fluorophenyl)ethyl)amino)-6-(1-(fluoromethyl)cyclopropyl)-2-methylpyrido[4,3-d]pyrimidine-7(6H)-one]: the IC50 came to 95.5 nM in test [1] and 50.5 nM in the test on H358 cells.

Turning to `[2H]C([2H])([2H])Oc1c(=O)n(C2(CF)CC2)cc2c(N[C@H](C)c3cccc([N+](=O)[O-])c3C)nc(C)nc12` [Example 30, (R)-6-(1-(fluoromethyl)cyclopropyl)-8-(methoxy-d3)-2-methyl-4-((1-(2-methyl-3-nitrophenyl)ethyl)amino)pyrido[4,3-d]pyrimidine-7(6H)-one], the IC50 was determined as 29.5 nM in test [1] and 33.6 nM in the test on H358 cells.

On to `Cc1nc(N[C@H](C)c2cccc(C(F)(F)F)c2C)c2cn(C3(CF)CC3)c(=O)c(N3CCOC[C@@H]3C)c2n1` [Example 56, 6-(1-(fluoromethyl)cyclopropyl)-2-methyl-4-(((R)-1-(2-methyl-3-(trifluoromethyl)phenyl)ethyl)amino)-8-((S)-3-methylmorpholine)pyrido[4,3-d]pyrimidine-7(6H)-one], for which the values for the IC50 (in test [1]; in the test with H358 cells) were 42.4 nM and 17.4 nM, respectively.

In general, IC50 refers to the concentration needed to halve the response being measured.

These data come from patent publication EP4417607A1, “HETEROCYCLIC COMPOUND AS SOS1 INHIBITOR AND USES THEREOF” (Nanjing Zaiming Pharmaceutical Co., Ltd., priority 2021, dated 2023).
